Reference: patent US20260199371A1, “COORDINATION COMPOUND, COMPOSITIONS, AND USES THEREOF FOR TREATING CANCERS” (HUEIYUAN BIOTECH LLC, priority 2023, published 2026)

Key:
[1] = tested on: EMT markers in LoVo-OXAR cells; details: western blot, 24 hours
From the text: (§1) Vimentin and E-cadherin are molecular markers linked to tumor progression through their roles in EMT, which is a pathological process contributing to migration and invasion of cancer cells and tumor progression. Vimentin is a key component of intermediate filaments, which helps maintain cellular integrity and resistance to stress. E-cadherin plays a role in maintaining epithelial phenotypes by mediating contact inhibition when cells proliferate and reach confluence. To further investigate the influence of the compound (II) on EMT marker expression, western blotting, immunofluorescence detection, and quantitative real-time reverse transcription polymerase chain reaction (qRT-PCR) were performed in LoVo-parental and LoVo-OXAR cells treated with various doses of the compound (II) for 24 hours.
(§2) The cells after the indicated treatments were harvested and subject to western blot analysis using primary antibodies against vimentin, E-cadherin, and GAPDH (San-ta Cruz Biotechnology Inc. Santa Cruz, California, USA). GAPDH was used as an internal control.

[2] = tested on: EMT markers in LoVo-parental cells; details: western blot, 24 hours
From the text: as §1, §2

[3] = tested on: EMT markers in LoVo-OXAR cells; details: immunofluorescence
From the text: as §1
(§3) The cells were then permeabilized with 0.1% Triton X-100 in 0.1% sodium citrate and the well was blocked with blocking buffer (2% bovine serum albumin), followed by immunofluorescence staining. The cells were incubated with primary antibodies against vimentin and E-cadherin for 24 hours at 4° C. and subsequently incubated with fluorescent secondary antibodies for 1 hour at 25° C. before DAPI staining and observation using fluorescence microscopy.

[4] = tested on: EMT markers in LoVo-parental cells; details: immunofluorescence
From the text: as §1, §3

[5] = tested on: EMT markers in LoVo-OXAR cells; details: qRT-PCR
From the text: as §1
Total RNA from the cells after the indicated treatments was extracted using the GeneJET RNA purification kit (ThermoFisher Scientific, Lithuania) and reverse transcribed to cDNA using a GScript First-Strand Synthesis Kit, a cDNA synthesis kit, and Oligo-dT primers according to the manufacturer's instructions. RT-PCR was performed using ORA^T SEE qPCR Green ROX L Mix, 2× (HighQu, USA). Primers for EMT markers (Vimentin, E-cadherin, TJP1, and FN1) and GAPDH (as endogenous control) were synthesized by Bio-ProTech based the sequences in TABLE 1. The 2^−ΔΔCt method was used to calculate a relative fold change in gene expression. […] TJP1 is a marker of epithelial cells that disappears during EMT and cancer development. In contrast, FN1 is involved in the occurrence and development of various tumors and acts as a critical gene in gastric cancer.

LoVo-OXAR cells [6] = details: high dose 100 mg/kg/day orally, compared to low dose 10 mg/kg/day
From the text: (§4) Six-week-old male NU/NU mice were purchased from Bio LASCO Taiwan Co., Ltd (Taipei, Taiwan) and randomly assigned into six groups (Groups 1 to 6), each containing three mice. […] All mice were sacrificed on day 30, and the mouse lung, kidney, spleen, and heart were examined for metastatic cancer cells.

LoVo-parental cells [7] = details: high dose 100 mg/kg/day orally, compared to low dose 10 mg/kg/day
From the text: as §4

GBM 8401 cells = details: 0-1800 μg/ml, 24 hours
Procedure: Human brain glioblastoma multiforme GBM 8401 cells (commercially available from BCRC under the number BCRC 60163) were cultured in RPMI 1640 medium supplemented with 10% FBS.

T24 cells = details: 0-1600 μg/ml, 24 hours
Procedure: Human bladder carcinoma T24 cells (commercially available from ATCC under the number HTB-4) were cultured in RPMI 1640 medium supplemented with 10% FBS.

Jurkat cells = details: 0-1600 μg/ml, 24 hours
Procedure: Human T-acute lymphoblastic leukemia Jurkat cells (resistant to cisplatin and commercially available from ATCC under the number TIB-512) were cultured in RPMI 1640 medium supplemented with 10% FBS.

A431 cells = details: 1-1000 μg/ml, 48 hours
Procedure: Human epidermoid carcinoma A431 cells (commercially available from ATCC under the number CRL-1555) were cultured in DMEM supplemented with 10% FBS.

MIA PaCa-2 cells = details: six days
Procedure: (§5) Human pancreatic carcinoma MIA PaCa-2 cells (commercially available from ATCC under the number CRL-1420) were cultured in DMEM supplemented with 10% FBS, 1 mM sodium pyruvate, and 2.5% horse serum. Human pancreatic epithelioid carcinoma PANC-1 cells (commercially available from ATCC under the number CRL-1469) were cultured in DMEM supplemented with 10% FBS and 1 mM sodium pyruvate.

PANC-1 cells = details: six days
Procedure: as §5

LoVo-parental cells [8] = details: single agent: compound (II) 500 μg/ml or oxaliplatin 50 μg/ml, 48 hours
LoVo-OXAR cells [9] = details: single agent: compound (II) 2000 μg/ml or oxaliplatin 50 μg/ml, 48 hours
LoVo-parental cells [10] = details: single agent: compound (II) 500 μg/ml or oxaliplatin 50 μg/ml, 72 hours
LoVo-OXAR cells [11] = details: single agent: compound (II) 2000 μg/ml or oxaliplatin 50 μg/ml, 72 hours
[12] = tested on: PANC-1 cells tumor xenograft; assay: Subcutaneous PANC-1 tumor xenograft in C.B17/SCID mice; details: for Change in body weight / TGI (%): oral; for TGI (%): 14 days, read 14 days after the treatment period
[13] = Group 5: 150 mg/kg, twice a day

Compound: CC(=O)[O-].CC(=O)[O-].CC(=O)[O-].CC(=O)[O-].CC(=O)[O-].CC(=O)[O-].O.O.O.O.O=[N+]([O-])[O-].[Cr+3].[Fe+3].[Fe+3].[OH-].[OH-] [compound (II)]
- protein expression of E-cadherin [1]: increased
- protein expression of vimentin [1]: significantly reduced
- protein expression of E-cadherin [2]: increased
- protein expression of vimentin [2]: significantly reduced
- expression of E-cadherin [3]: significantly increased
- vimentin expression [3]: significantly suppressed
- expression of E-cadherin [4]: significantly increased
- vimentin expression [4]: significantly suppressed
- E-cadherin mRNA expression [5]: increased
- FN1 mRNA expression [5]: decreased
- TJP1 mRNA expression [5]: increased
- vimentin mRNA expression [5]: decreased
- metastasis to the lung, kidney, spleen, and heart (LoVo-OXAR cells [6]): effectively inhibited the metastasis
- metastasis to the lung, kidney, spleen, and heart (LoVo-parental cells [7]): effectively inhibited the metastasis
- viability of GBM 8401 cells (GBM 8401 cells): reduced the viability of the glioblastoma cells in a dose-dependent manner
- viability of T24 cells (T24 cells): reduced the viability of the bladder carcinoma cells in a dose-dependent manner
- viability of Jurkat cells (Jurkat cells): reduced the viability of the Jurkat cells in a dose-dependent manner
- viability of A431 cells (A431 cells): reduced the viability of the A431 cells in a dose-dependent manner
- viability of MIA PaCa-2 cells (MIA PaCa-2 cells; 0-2000 μg/ml): reduced the viability of both pancreatic cancer cells in a dose-dependent manner
- IC50 against MIA PaCa-2 cells (MIA PaCa-2 cells; MTT): approximately 660 μg/ml
- viability of PANC-1 cells (PANC-1 cells; 0-2000 μg/ml): reduced the viability of both pancreatic cancer cells in a dose-dependent manner
- IC50 against PANC-1 cells (PANC-1 cells; MTT): ~1700 µg/mL
- migration rate of LoVo-parental cells (LoVo-parental cells [8]): significantly decreased
- migration rate of LoVo-OXAR cells (LoVo-OXAR cells [9]): significantly decreased
- invasion rate of LoVo-parental cells (LoVo-parental cells [10]): significantly decreased
- invasion rate of LoVo-OXAR cells (LoVo-OXAR cells [11]): significantly decreased
- Change in body weight ([12]; Group 3: 100 mg/kg, once a day): 107 ± 5%
- TGI (%) ([12]; Group 3: 100 mg/kg, once a day): 51 ± 8%
- Change in body weight ([12]; Group 4: 150 mg/kg, once a day): 102 ± 3%
- TGI (%) ([12]; Group 4: 150 mg/kg, once a day): 51 ± 6%
- Change in body weight [12, 13]: 103 ± 4%
- TGI (%) [12, 13]: 88 ± 6%
- toxicity to mice at a therapeutically effective dose ([12]; Groups 3-5): not toxic to mice
- body weight of the mice ([12]; Groups 3-5, FIG. 20B): remained constant
